Results published in publication PMC7956620 (Molecules, 2021).
Positions count from the first letter of the chain named.

What was measured:
Format in all cases: cell-based
Conditions in all cases: 100 µM chanoclavine, read-out: Inhibition Percentage (%)
[1] = target: T1, 5-HT3A receptor I71A mutant (Homo sapiens, UniProt P46098, I66A); test: two-electrode voltage clamp, I71A mutant receptor in Xenopus oocytes
T1 construct: host or cells: Xenopus laevis oocytes injected with in vitro transcribed mRNA
T1 sequence (P46098 24-478 I66A): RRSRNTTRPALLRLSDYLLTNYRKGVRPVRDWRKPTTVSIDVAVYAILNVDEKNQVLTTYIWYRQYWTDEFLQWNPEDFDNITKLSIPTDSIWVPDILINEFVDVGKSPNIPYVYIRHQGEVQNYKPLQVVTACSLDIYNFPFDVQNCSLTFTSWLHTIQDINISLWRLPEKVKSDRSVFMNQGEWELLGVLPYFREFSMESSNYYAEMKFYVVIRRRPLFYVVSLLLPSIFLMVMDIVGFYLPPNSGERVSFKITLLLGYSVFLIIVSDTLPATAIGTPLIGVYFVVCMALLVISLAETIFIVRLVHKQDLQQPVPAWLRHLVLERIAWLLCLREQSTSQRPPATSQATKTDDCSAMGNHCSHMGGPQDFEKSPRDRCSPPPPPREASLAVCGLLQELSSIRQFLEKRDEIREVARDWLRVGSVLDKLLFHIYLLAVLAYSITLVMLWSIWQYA
Experimental: (§1) The site-directed mutation of one or two amino acids was performed using sense and antisense primers and Pfu polymerase (QuickChange Site-Directed Mutagenesis Kit; Agilent, Santa Clara, CA, USA) and amplified by polymerase chain reaction (PCR) to increase the target domain. After removing the existing methylated cDNA using Dpn Ⅰ, the PCR products were transformed into Escherichia coli strain DH5α. The cDNA of the 5-HT3A receptor was linearized by Xho Ⅰ at the end of the multi-cloning site, followed by transcription using T7 polymerase and a transcription kit (mMESSAGE mMACHINE T7 Transcription Kit; Thermo Fisher Scientific, Waltham, MA, USA). […]
(§2) To isolate oocytes, female Xenopus laevis were put into a container filled with ice and left for about one hour. […] When the Xenopus oocytes were ready for injection, 50 ng of mRNA was injected with a nanoliter injector (Drummond Scientific, Vernon Hills, IL, USA). […]
(§3) The oocytes in which mRNA was expressed during the incubation period allowed for the estimation of channel or receptor properties for observing drug and ligand potential interactions using a two-electrode voltage clamp (OC-725C; Warner Instruments, Hamden, CT, USA) and Digidata (1322A; Molecular Devices, Sunnyvale, CA, USA). […] The voltage and current electrodes were filled with 3 M KCl (0.3–0.7 MΩ) and analyzed at a −80 mV holding potential. […]

[2] = target: T2, 5-HT3A receptor R92A mutant (Homo sapiens, UniProt P46098, R87A); test: two-electrode voltage clamp, R92A mutant receptor in Xenopus oocytes
T2 construct: host or cells: Xenopus laevis oocytes injected with in vitro transcribed mRNA
T2 sequence (P46098 24-478 R87A): T1 sequence (P46098 24-478 I66A) with A43I, R64A
Experimental: as §1, §2, §3

[3] = target: T3, 5-HT3A receptor F130A mutant (Homo sapiens, UniProt P46098, F125A); test: two-electrode voltage clamp, F130A mutant receptor in Xenopus oocytes
T3 construct: host or cells: Xenopus laevis oocytes injected with in vitro transcribed mRNA
T3 sequence (P46098 24-478 F125A): T1 sequence (P46098 24-478 I66A) with A43I, F102A
Experimental: as §1, §2, §3

SMILES: CN[C@@H]1Cc2c[nH]c3cccc(c23)[C@H]1/C=C(\C)CO [chanoclavine]
- inhibition at 100 µM [1]: 62.7 ± 3.1%
- inhibition at 100 µM [2]: 95.45 ± 0.3%
- inhibition at 100 µM [3]: 9.36 ± 4.3%
